Source: patent publication US4661294A, “Biologically active 1-thio derivatives of vitamin D” (The General Hospital Corporation, priority 1985, dated 1987)

Columns and labels:
[1] = literature reports; cited from earlier work
human fibroblasts = experiment: human fibroblast cell proliferation; assay type: cell-based; conditions: for effect on the inhibitory effect of 1-alpha,25-dihydroxyvitamin D3 on cell generation: added to the 1-alpha,25-dihydroxy compound
Procedure: FIG. 4 is a graph comparing the effects of ethanol ( ), ethanol plus 1-alpha,25-dihydroxyvitamin D3 ( ), and 1-beta-thio-25-hydroxyvitamin D3 and 1-alpha,25-dihydroxyvitamin D3 ( ) on human fibroblast cell proliferation.
To confirm this, the effects of various compounds on cell proliferation rates were studied, using human fibroblasts to evaluate activity. Human fibroblasts were prepared as described by Clemens, J. Clin. Endocrinol. Met., 56: 197 (1983). In the study, 2.5×10^5 cells, in quadruplicate, were exposed to (a) 95% ethanol; (b) ethanol plus 1-alpha-25-dihydroxyvitamin D3 ( ); or (c) 1-beta-thio-25-hydroxyvitamin D3 plus 1-alpha, 25-dihydroxyvitamin D3 ( ). As may be seen from FIG. 4, the 1-alpha-25-dihydroxy-vitamin D3 inhibited cell generation by about 30% ( ). […] Further, the 1-thio compound alone had no effect on cell generation time (data not shown).

[2] = biological target: T1, chick cytosolic receptor (1,25-dihydroxyvitamin receptor site) (Gallus gallus, UniProt O42392); experiment: competition with 3H-1,25-dihydroxyvitamin D3 for receptor site (procedure of Eisman et al.); assay type: binding
T1 sequence (O42392 1-451): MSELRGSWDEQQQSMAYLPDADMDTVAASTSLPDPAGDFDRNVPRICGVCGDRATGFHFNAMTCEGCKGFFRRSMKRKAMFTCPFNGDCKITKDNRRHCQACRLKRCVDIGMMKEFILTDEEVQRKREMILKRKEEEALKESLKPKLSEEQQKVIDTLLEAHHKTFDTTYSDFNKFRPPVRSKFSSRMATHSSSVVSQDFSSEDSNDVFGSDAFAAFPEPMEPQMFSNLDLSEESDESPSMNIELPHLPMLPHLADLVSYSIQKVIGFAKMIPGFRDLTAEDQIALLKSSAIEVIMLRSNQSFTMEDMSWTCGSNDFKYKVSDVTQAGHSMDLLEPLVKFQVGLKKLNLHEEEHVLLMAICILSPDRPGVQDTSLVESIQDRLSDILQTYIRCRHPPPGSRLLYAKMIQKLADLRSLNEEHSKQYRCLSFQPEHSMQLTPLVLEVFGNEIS
Text: FIG. 3 is a graph comparing the binding characteristics of 1-alpha,25-dihydroxyvitamin D3 ( ) and 1-beta-thio-25-hydroxyvitamin D3 (Δ) using chick cytosolic receptor.
Thus, the 1-beta-thio-25-hydroxyvitamin D3 can be used as a biologically active analogue of the natural compound.

For `C=C1/C(=C\C=C2/CCC[C@]3(C)[C@@H]([C@H](C)CCCC(C)(C)F)CC[C@@H]23)C[C@@H](O)C[C@@H]1F` [1-alpha-25-difluoro vitamin D3], the biological activity [1] is listed as “biologically inert”.

With `C=C1/C(=C\C=C2/CCC[C@]3(C)[C@@H]([C@H](C)CCCC(C)(C)O)CC[C@@H]23)C[C@@H](O)C[C@@H]1O` [1-alpha-25-dihydroxy-vitamin D3, 1-alpha,25-dihydroxyvitamin D3, reference compound] the “inhibition of cell generation” value (human fibroblasts; human fibroblasts, 2.5×10^5 cells, FIG. 4) was “about 30%”.

For `C=C1/C(=C\C=C2/CCC[C@]3(C)[C@@H]([C@H](C)CCCC(C)(C)O)CC[C@@H]23)C[C@@H](O)C[C@H]1S` [1-beta-thio-25-hydroxyvitamin D3, 1-beta-thio-25-hydroxy vitamin D3], the “competition with 3H-1,25-dihydroxyvitamin D3 for the receptor site / recognition by the cytosol receptor site” value ([2]; FIG. 3) was “able to compete”, the “competition with 3H-1,25-dihydroxyvitamin D3 for the receptor site / recognition by the cytosol receptor site” value ([2]; FIG. 3, listed as 1-beta-thio-hydrovitamin D3) was “recognized by the cytosol receptor site” and the “effect on the inhibitory effect of 1-alpha,25-dihydroxyvitamin D3 on cell generation” value (human fibroblasts; human fibroblasts, FIG. 4) was “blocked the inhibitory effect”. For the same molecule, the “effect on the inhibitory effect of 1-alpha,25-dihydroxyvitamin D3 on cell generation” value (human fibroblasts; human fibroblasts, FIG. 4, listed as 1-beta-thio-hydrovitamin D3) was “blocks the ability of the 1,25-dihydroxy compound from affecting in vitro fibroblast cell division” and the “effect on cell generation time” value (human fibroblasts; compound alone (data not shown)) was “no effect”.

For `C=C1/C(=C\C=C2/CCC[C@]3(C)[C@@H]([C@H](C)CCCC(C)C)CC[C@@H]23)C[C@@H](O)CC1F` (some centres unmarked) [1-fluoro vitamin D3], the biological activity [1] is given as “possess biological activity”.
